Literature values, collected in patent publication US7442682B2, “Transepithelial delivery of peptides with incretin hormone activities” (Nitto Denko Corporation, priority 2004, dated 2008).

What was measured:
[1] = in vivo
β-cells = details: insulinotropic effect; read-out: half-maximal effective concentration on β-cells
fasting blood glucose = details: type 2 diabetes patients, pump infusion for 6 weeks, mainly within first week

CCCCCCCCCCCCCCCC(=O)N[C@@H](CCC(=O)NCCCC[C@H](NC(=O)[C@H](C)NC(=O)[C@H](C)NC(=O)[C@H](CCC(N)=O)NC(=O)CNC(=O)[C@H](CCC(=O)O)NC(=O)[C@H](CC(C)C)NC(=O)[C@H](Cc1ccc(O)cc1)NC(=O)[C@H](CO)NC(=O)[C@H](CO)NC(=O)[C@@H](NC(=O)[C@H](CC(=O)O)NC(=O)[C@H](CO)NC(=O)[C@@H](NC(=O)[C@H](Cc1ccccc1)NC(=O)[C@@H](NC(=O)CNC(=O)[C@H](CCC(=O)O)NC(=O)[C@H](C)NC(=O)[C@@H](N)Cc1cnc[nH]1)[C@@H](C)O)[C@@H](C)O)C(C)C)C(=O)N[C@@H](CCC(=O)O)C(=O)N[C@@H](Cc1ccccc1)C(=O)N[C@H](C(=O)N[C@@H](C)C(=O)N[C@@H](Cc1c[nH]c2ccccc12)C(=O)N[C@@H](CC(C)C)C(=O)N[C@H](C(=O)N[C@@H](CCCNC(=N)N)C(=O)NCC(=O)N[C@@H](CCCNC(=N)N)C(=O)NCC(=O)O)C(C)C)[C@@H](C)CC)C(=O)O [Liraglutide]
half-life relative to exendin-4 [1]: more than 10 fold

GLP-1: glucagon-like peptide-1, human incretin hormone
EC50 (β-cells): 0.01 nM | lowering of fasting blood glucose (fasting blood glucose): 4 to 5 mM
